From ChEMBL document CHEMBL1201862, “PubChem BioAssay data set” (2004)
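Compound exposure: 48 hours, 5 concentrations, 96-well plates. GI50 = concentration required for 50% inhibition of growth.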 Activity calls are given as the source filed them. Cut-off read from the data, not from the text of the source: active = GI50 up to about 1.1 µM and inactive = higher.

Tests used:
Experiment in all cases: NCI anticancer screen, dose series, 48 h
UACC-62 = tested on: UACC-62
NCI-H460 = tested on: NCI-H460
SF-268 = tested on: SF-268
PC-3 = tested on: PC-3
A498 = tested on: A498
NCI-H23 = tested on: NCI-H23
OVCAR-5 = tested on: OVCAR-5
COLO 205 = tested on: COLO 205
SR = tested on: SR
HCC 2998 = tested on: HCC 2998
Malme-3M = tested on: Malme-3M
OVCAR-4 = tested on: OVCAR-4
IGROV-1 = tested on: IGROV-1
A549 = tested on: A549
HCT-15 = tested on: HCT-15
LOX IMVI = tested on: LOX IMVI
CAKI-1 = tested on: CAKI-1
SF-295 = tested on: SF-295
RPMI-8226 = tested on: RPMI-8226

Measured: GI50

N#CC(C#N)/N=N/c1ccc(-c2nc3ccccc3o2)cc1
14.8 µM: HCT-15
inactive: UACC-62 6.05 µM | NCI-H460 13.9 µM | SF-268 27.5 µM | PC-3 8 µM | A498 13.9 µM | NCI-H23 10.1 µM | OVCAR-5 17.4 µM | COLO 205 11.7 µM | SR 16.2 µM | HCC 2998 1.22 µM | Malme-3M 13.3 µM | OVCAR-4 12 µM | IGROV-1 19.4 µM | A549 21 µM | LOX IMVI 13.1 µM

Nc1nc(-c2ccccc2)c(-c2ccccc2)c(-c2nc(N)nc(-c3ccccc3)c2-c2ccccc2)n1
> 100 µM: HCT-15
inactive: UACC-62 85.3 µM | CAKI-1 > 100 µM | NCI-H460 74.3 µM | SF-268 > 100 µM | PC-3 > 100 µM | A498 75.5 µM | NCI-H23 > 100 µM | OVCAR-5 > 100 µM | COLO 205 > 100 µM | SF-295 78.9 µM | SR > 100 µM | HCC 2998 49 µM | Malme-3M > 100 µM | OVCAR-4 91 µM | IGROV-1 > 100 µM | A549 > 100 µM | LOX IMVI > 100 µM

COc1ccc(-n2c(C)nc3ccc(NC4OCC(OC(C)=O)C(OC(C)=O)C4OC(C)=O)cc3c2=O)cc1 (centres undefined)
> 100 µM: HCT-15
inactive: UACC-62 > 100 µM | CAKI-1 > 100 µM | NCI-H460 > 100 µM | SF-268 > 100 µM | PC-3 > 100 µM | A498 > 100 µM | NCI-H23 > 100 µM | OVCAR-5 > 100 µM | COLO 205 > 100 µM | SF-295 > 100 µM | SR > 100 µM | HCC 2998 97.1 µM | Malme-3M > 100 µM | OVCAR-4 > 100 µM | IGROV-1 > 100 µM | RPMI-8226 35.9 µM | LOX IMVI > 100 µM

COc1ccc(NC(C)=O)cc1N1C(=O)/C(=C\c2cccc(Oc3ccccc3)c2)S(=O)(=O)C1c1ccccc1 (centres undefined)
inactive: UACC-62 58.7 µM | CAKI-1 16.6 µM | NCI-H460 74.1 µM | PC-3 36.6 µM | A498 > 100 µM | NCI-H23 60.3 µM | OVCAR-5 > 100 µM | COLO 205 58.2 µM | SF-295 53.1 µM | SR 4.21 µM | HCC 2998 > 100 µM | Malme-3M 70.1 µM | OVCAR-4 16.1 µM | IGROV-1 34.5 µM | A549 62.8 µM | RPMI-8226 22.3 µM | LOX IMVI 26.9 µM
39 µM: HCT-15

Cc1sc2nc3n(c(=O)c2c1C)N=C(c1ccc(Cl)cc1)CS3
> 100 µM: HCT-15
inactive: UACC-62 > 100 µM | CAKI-1 > 100 µM | NCI-H460 > 100 µM | SF-268 > 100 µM | PC-3 > 100 µM | A498 > 100 µM | NCI-H23 > 100 µM | OVCAR-5 > 100 µM | COLO 205 > 100 µM | SF-295 > 100 µM | SR > 100 µM | HCC 2998 > 100 µM | Malme-3M > 100 µM | OVCAR-4 > 100 µM | A549 > 100 µM | RPMI-8226 > 100 µM | LOX IMVI > 100 µM

CCOC(=O)c1c(N=P(c2ccccc2)(c2ccccc2)c2ccccc2)nnc(-c2ccccc2)c1-c1ccccc1
inactive: UACC-62 > 100 µM | NCI-H460 > 100 µM | SF-268 > 100 µM | PC-3 > 100 µM | A498 25.9 µM | NCI-H23 > 100 µM | OVCAR-5 > 100 µM | COLO 205 > 100 µM | SF-295 > 100 µM | SR > 100 µM | HCC 2998 > 100 µM | Malme-3M > 100 µM | OVCAR-4 > 100 µM | IGROV-1 > 100 µM | A549 > 100 µM | LOX IMVI > 100 µM
> 100 µM: HCT-15

COC(=O)C1(C(=O)OC)N=C(C)OC1/C=C/c1ccccc1 (centres undefined)
> 100 µM: HCT-15
inactive: UACC-62 > 100 µM | CAKI-1 > 100 µM | NCI-H460 > 100 µM | PC-3 > 100 µM | A498 > 100 µM | NCI-H23 > 100 µM | OVCAR-5 > 100 µM | COLO 205 > 100 µM | SF-295 > 100 µM | SR > 100 µM | HCC 2998 > 100 µM | OVCAR-4 > 100 µM | IGROV-1 > 100 µM | A549 > 100 µM | RPMI-8226 38 µM | LOX IMVI > 100 µM

O=C1C2=Nc3ccccc3C(O)(C(=O)O)N2c2ccccc21 (centres undefined)
inactive: CAKI-1 14.3 µM | NCI-H460 12.2 µM | SF-268 18.2 µM | PC-3 6.61 µM | A498 29.5 µM | NCI-H23 24.1 µM | OVCAR-5 34.8 µM | COLO 205 16.4 µM | SF-295 17.2 µM | SR 14.6 µM | HCC 2998 45.2 µM | Malme-3M 15 µM | OVCAR-4 14.3 µM | IGROV-1 37.7 µM | A549 7.66 µM | RPMI-8226 6.68 µM | LOX IMVI 20.1 µM
15.2 µM: HCT-15

O=C1NN=C(c2ccc(Cl)cc2)CC1C1C(=O)N(c2ccccc2)N=C1c1ccccc1 (centres undefined)
31.3 µM: HCT-15
inactive: UACC-62 26.8 µM | NCI-H460 28.1 µM | SF-268 48.2 µM | PC-3 22.2 µM | A498 26.2 µM | NCI-H23 23.3 µM | OVCAR-5 28.9 µM | COLO 205 41.8 µM | SF-295 29.9 µM | SR 93.1 µM | HCC 2998 26.8 µM | Malme-3M 30.7 µM | OVCAR-4 26.4 µM | IGROV-1 35.7 µM | A549 34 µM | RPMI-8226 37.1 µM | LOX IMVI 18.2 µM

c1ccc(C(/C(=N/c2ccc(Cc3ccc(/N=C(\C(c4ccccc4)c4ccccc4)N4CC4)cc3)cc2)N2CC2)c2ccccc2)cc1
inactive: UACC-62 2.32 µM | CAKI-1 6.95 µM | NCI-H460 1.78 µM | SF-268 4.86 µM | PC-3 3.83 µM | A498 12.5 µM | NCI-H23 10.5 µM | OVCAR-5 11.5 µM | COLO 205 3.27 µM | SF-295 9.31 µM | SR 1.31 µM | HCC 2998 10.1 µM | Malme-3M 14.9 µM | A549 7.36 µM | RPMI-8226 3.65 µM | LOX IMVI 1.53 µM
10.1 µM: HCT-15
active: IGROV-1 0.942 µM

CC(C)(C)c1cc(C2=NNC(c3ccccc3)C2)cc(C(C)(C)C)c1O (centres undefined)
13.8 µM: HCT-15
inactive: UACC-62 13.5 µM | CAKI-1 12.9 µM | NCI-H460 15.4 µM | SF-268 17 µM | PC-3 14.6 µM | A498 15.3 µM | NCI-H23 17.2 µM | OVCAR-5 21.1 µM | COLO 205 17.5 µM | SF-295 16.5 µM | SR 5.58 µM | Malme-3M 17.9 µM | OVCAR-4 14.2 µM | IGROV-1 15.7 µM | A549 15.3 µM | RPMI-8226 15 µM | LOX IMVI 15.9 µM
